Consider 1 molecule from patent US20140357688A1, “METHOD FOR INHIBITING EZH2 EXPRESSION IN BREAST CANCER CELLS” (Yung Shin Pharm. Ind. Co., Ltd., priority 2013, published 2014).

In experiment [1] the test system is SUZ12. The experiment in a line: Western blot of PRC2 protein expression in MDA-MB-468 cells. The experiment is classed as cell-based, human. Particulars: 24 h. As for the experimental part: (§1) (A)(B) Cells were treated with indicated concentration of YC-1 for 24 h (A) or 3 μM of YC-1 for indicated time (B). Cells were harvested and performed with western blotting analysis. […] The levels of protein expression were quantitated and shown under blots. (C) Cells were transfected with EZH2 shRNA for 0, 1, 2, 3, and 4 days and collected for determination of cell viability (left) and protein expression (right). (D)(E) After 4 days of EZH2 knockdown, cells were incubated with 3 μM YC-1 for 4 h and detected cell viability (D) and protein contents (E). (F) Tumor specimens were isolated and protein was extracted for western blot analysis.
(§2) Cells were lysed in PBS containing proteinase inhibitor and phosphatase inhibitors and sonication. Protein concentration was measured using the Bio-Rad protein assay kit (Bio-Rad Laboratories, Hercules, Calif., USA). Lysate protein was separated by electrophoresis of SDS-PAGE and transferred to Immobilon P membrane (EMD Millipore). The membranes were incubated with appropriate primary antibodies and horseradish peroxidase-conjugated secondary antibodies (EMD Millipore). The signaling was visualized using Chemiluminescence substrate kit (EMD Millipore) and collected by the Luminesence image analyzer, LAS4000 (Fuji Photo Film Co., Tokyo, Japan). The band intensities were analyzed and quantified by the Multi Gauge software (Fuji Photo Film).

The test system of experiment [2] is RbAp48. Described as above. The format is cell-based, human. Particulars: 24 h. On the procedure:
as §1, §2

For experiment [3], the system named is EED. The description is as above. The format is cell-based, human. Particulars: 24 h. On the procedure:
as §1, §2

The subject of experiment [4] is caspase-8, -9, and -3 and PARP. The experiment can be described thus: Western blot of caspases and PARP cleavage. The format is cell-based, human. As for the experimental part:
(A) Cells were treated with indicated concentration of YC-1 for 6, 24, and 48 h. Cell viability was determined by MTT method. (B) MDA-MB-468 cells were treated with 3 μM YC-1 for 0, 6, and 12 h, and then stained with fluorescence diacetate (FDA) and propidium iodide (PI). Cell morphology was assessed by fluorescence microscopy with magnification ×20 (upper 3 rows) or ×40 (lowest row). (C) MDA-MB-468 cells were treated with 3 μM YC-1 for 24 h, cells were lysed and subjected to western blot analysis described in Materials and Methods. β-actin is a loading control. Blots were representative of results from three independent experiments. (D) Cells were treated with vehicle (DMSO, as control) or 3 μM YC-1 for 6 h. The cell cycles were analyzed by flow cytometry. […]
(A)(B) Cells were treated with indicated concentration of YC-1 for 24 h (A) or 3 μM of YC-1 for indicated time (B). […] The levels of protein expression were quantitated and shown under blots. […] (D)(E) After 4 days of EZH2 knockdown, cells were incubated with 3 μM YC-1 for 4 h and detected cell viability (D) and protein contents (E). […]
Cells were lysed in PBS containing proteinase inhibitor and phosphatase inhibitors and sonication. Protein concentration was measured using the Bio-Rad protein assay kit (Bio-Rad Laboratories, Hercules, Calif., USA). […] The band intensities were analyzed and quantified by the Multi Gauge software (Fuji Photo Film).
(In general: In western blotting, separated proteins are transferred to a membrane and probed.)

Experiment [5] deals with EZH2 mRNA. The experiment in a line: Quantitative real-time RT-PCR of EZH2 mRNA. The format is cell-based, human. Particulars: 3 μM YC-1, 3 or 6 h; less inhibition than protein levels. As for the experimental part: Cells were treated with 3 μM YC-1 for 3 or 6 h. Cells were collected for the detection of EZH2 mRNA expression with quantitative real-time RT-PCR described in Materials and Methods.
Total RNA was isolated from MDA-MB-468 cells treated with YC-1 and extracted using TRIzol® Reagent (Invitrogen). cDNA strain was reverse transcribed by oligo dT(15) using M-MLV reverse transcriptase (Invitrogen) according to the manufacturer's instructions. Quantitative real-time RT-PCR analysis was performed by a LightCycler® 480 II RTPCR system (Roche Applied Sciences, Manheim, Germany) using Fast Start DNA Master Plus SYBR Green I kit (Roche Applied Sciences). PCR primers were as follows: human EZH2 (NM_004456.4) 5′-[…]-3′ (Forward), 5′-[…]-3′ (Reverse); human GAPDH (NM_002046.3) 5′-[…]-3′ (Forward); 5′-[…]-3′ (Reverse). The expression level of EZH2 mRNA was normalized against the level of GAPDH mRNA in the same sample.
(In qPCR the cycle at which signal appears reflects the starting amount.)

The test system of experiment [6] is H3K27me3. The experiment can be described thus: Western blot of H3K27me3 in MDA-MB-468 cells. The format is cell-based, human. On the procedure:
as §1, §2

Experiment [7] has as its system MDA-MB-468 cells. The experiment can be described thus: Colony formation (clonogenic) assay. The format is cell-based, human. As for the experimental part: (A) Cells were treated with indicated concentration of YC-1 for 6, 24, and 48 h. Cell viability was determined by MTT method. (B) MDA-MB-468 cells were treated with 3 μM YC-1 for 0, 6, and 12 h, and then stained with fluorescence diacetate (FDA) and propidium iodide (PI). Cell morphology was assessed by fluorescence microscopy with magnification ×20 (upper 3 rows) or ×40 (lowest row). (C) MDA-MB-468 cells were treated with 3 μM YC-1 for 24 h, cells were lysed and subjected to western blot analysis described in Materials and Methods. β-actin is a loading control. Blots were representative of results from three independent experiments. (D) Cells were treated with vehicle (DMSO, as control) or 3 μM YC-1 for 6 h. The cell cycles were analyzed by flow cytometry. (E) Cells were treated with indicated concentration of YC-1 and then performed with clonogenic assay.
After exposure to YC-1, cells were collected and washed extensively with PBS. Five hundred cells per well was seeded onto 6-well plates and maintained in a 37° C., 5% CO2 incubator. Three weeks later, colonies were fixed with formaldehyde (3.7%, v/v) and stained with crystal violet (0.5%, w/v), then counted.

In experiment [8] the test system is c-Cbl. The experiment in a line: Western blot of c-Cbl phosphorylation and expression. The experiment is classed as cell-based, human. As for the experimental part:
(A) c-Cbl knockdown MDA-MB-468 cells were treated with 3 μM YC-1 for 4 h. Cell were harvested for detection of protein expression. (B) Cells were treated with 3 μM YC-1 for indicated time. Cells were collected and c-Cbl phosphorylation was detected. […] (D) Cells were pretreated with MG-132 and followed by 3 μM YC-1 induction for indicated time. Cells were harvested and lysed for immunoprecipitation assay. The association between c-Cbl and EZH2 were determined by western blotting analysis and probed with anti-EZH2 or anti-c-Cbl antibody. Membranes were stripped and reprobed with anti-c-Cbl or anti-EZH2 antibody to check the input. […] Then cells were collected and lysate protein was subjected for the detection of the c-Cbl-EZH2 complexes. Cells were lysed in PBS containing proteinase inhibitor and phosphatase inhibitors and sonication. Protein concentration was measured using the Bio-Rad protein assay kit (Bio-Rad Laboratories, Hercules, Calif., USA). Lysate protein was separated by electrophoresis of SDS-PAGE and transferred to Immobilon P membrane (EMD Millipore). The membranes were incubated with appropriate primary antibodies and horseradish peroxidase-conjugated secondary antibodies (EMD Millipore). The signaling was visualized using Chemiluminescence substrate kit (EMD Millipore) and collected by the Luminesence image analyzer, LAS4000 (Fuji Photo Film Co., Tokyo, Japan). The band intensities were analyzed and quantified by the Multi Gauge software (Fuji Photo Film).

Experiment [9] concerns EZH2. The experiment in a line: Western blot of EZH2 in tumor from MDA-MB-468 xenograft mice. The experiment is classed as in vivo, Nu/Nu mice. As for the experimental part: as §1
Cells were lysed in PBS containing proteinase inhibitor and phosphatase inhibitors and sonication. Protein concentration was measured using the Bio-Rad protein assay kit (Bio-Rad Laboratories, Hercules, Calif., USA). Lysate protein was separated by electrophoresis of SDS-PAGE and transferred to Immobilon P membrane (EMD Millipore). […] The band intensities were analyzed and quantified by the Multi Gauge software (Fuji Photo Film).
Nu/Nu female mice (four weeks old) were from National Laboratory Animal Center, Taipei, Taiwan. […] Tumor size and body weights of mice were measured once per 3 days and tumor volume (mm^3) was calculated as the equation: length×(width)×0.5. […]

Consider `OCc1ccc(-c2nn(Cc3ccccc3)c3ccccc23)o1` [YC-1, 3-(5′-hydroxymethyl-2′-furyl)-1-benzyl indazole], for which the SUZ12 protein expression result in experiment [1] is reported as “effectively concentration-dependent suppression”. In experiment [2], the RbAp48 protein expression result was “effectively concentration-dependent suppression”. Besides, the EED protein expression entry in [3] is reported as “no effect”. Further, the “earliest effects of caspase-3 activation detected” value in experiment [4] (3 μM YC-1) is given as 4 h. In addition, in experiment [4] (3 μM YC-1, 24 h), the “cleavage of caspases and PARP” value is “clearly caused the cleavage of caspases and PARP”. For the same molecule, in experiment [5], the “mRNA expression of EZH2” value is recorded as “inhibitory effect”. Further, in [6], the H3K27me3 level entry was “kept unchanged”. Besides, the clonogenic activity result in [7] is “potent ability in attenuation of tumor formation”. In experiment [8] (3 μM YC-1), the c-Cbl protein expression entry is listed as “inhibited”. Besides, the “c-Cbl Tyr731 and Tyr774 phosphorylation” value in experiment [8] (3 μM YC-1, after 1 h) is “rapid phosphorylation”. The “EZH2 level in tumor” value in [9] was “decrease EZH2 level in tumor”.
